Columns and labels:
[1] = biological target: T1, enzyme FAAH (Fatty Acid Amido Hydrolase) (Mus musculus, UniProt O08914); test: radioenzymatic test of FAAH inhibition (hydrolysis of anandamide [ethanolamine 1-3H], mouse brain membrane homogenates); format: biochemical; settings: anandamide 10 μM, 15 minutes at 25° C., read-out: IC50 (concentration inhibiting 50% of the control enzymatic activity of FAAH)
T1 construct: The membrane homogenates are prepared extemporaneously by homogenizing the tissues with a Polytron machine; from tissue; host or cells: mouse brain (minus cerebellum) membrane homogenate
T1 sequence (O08914 1-579): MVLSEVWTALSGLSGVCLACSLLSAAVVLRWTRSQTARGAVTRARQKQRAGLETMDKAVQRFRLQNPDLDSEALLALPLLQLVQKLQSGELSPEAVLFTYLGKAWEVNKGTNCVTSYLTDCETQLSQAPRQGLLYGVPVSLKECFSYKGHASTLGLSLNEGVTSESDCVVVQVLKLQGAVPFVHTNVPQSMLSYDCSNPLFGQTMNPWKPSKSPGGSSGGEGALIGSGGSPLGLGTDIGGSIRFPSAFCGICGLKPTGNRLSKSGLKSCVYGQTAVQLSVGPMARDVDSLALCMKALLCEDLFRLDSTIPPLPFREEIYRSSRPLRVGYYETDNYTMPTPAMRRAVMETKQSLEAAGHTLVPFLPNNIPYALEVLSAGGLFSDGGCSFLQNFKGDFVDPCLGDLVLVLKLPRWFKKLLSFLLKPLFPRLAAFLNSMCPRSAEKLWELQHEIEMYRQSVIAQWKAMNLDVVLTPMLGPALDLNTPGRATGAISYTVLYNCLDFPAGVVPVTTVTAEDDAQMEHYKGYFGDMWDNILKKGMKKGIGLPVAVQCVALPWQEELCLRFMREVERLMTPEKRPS
Experimental: The compounds of the invention were subjected to pharmacological tests to determine their inhibitory effect on the enzyme FAAH (Fatty Acid Amido Hydrolase).
Thus, mouse brains (minus the cerebellum) are removed and stored at −80° C. The membrane homogenates are prepared extemporaneously by homogenizing the tissues with a Polytron machine in 10 mM Tris-HCl buffer (pH 8) containing 150 mM NaCl and 1 mM EDTA. The enzymatic reaction is then performed in 70 μl of buffer containing fatty-acid-free bovine serum albumin (1 mg/ml). The various test compounds at different concentrations, anandamide [ethanolamine 1-^3H] (specific activity of 15-20 Ci/mmol) diluted to 10 μM with cold anandamide, and the membrane preparation (400 μg of thawed tissue per test) are successively added. After 15 minutes at 25° C., the enzymatic reaction is quenched by adding 140 μL of chloroform/methanol (2:1). The mixture is stirred for 10 minutes and then centrifuged for 15 minutes at 3500×g. An aliquot (30 μL) of the aqueous phase containing the ethanolamine [1-^3H] is counted by liquid scintillation.

male OF1 mice = test: test of analgesia: abdominal stretching induced by PBQ (phenylbenzoquinone) i.p.; format: in vivo; settings: 1 mg/kg p.o. at 2 hours, PBQ 2 mg/kg i.p.
Experimental: It is thus seen that the compounds according to the invention have inhibitory activity on the enzyme FAAH. The in vivo activity of the compounds of the invention was evaluated in a test of analgesia.
Thus, the intraperitoneal (i.p.) administration of PBQ (phenylbenzoquinone, 2 mg/kg in a 0.9% sodium chloride solution containing 5% ethanol) to male OF1 mice weighing 25 to 30 g causes abdominal stretching, on average 30 twists or contractions in the period from 5 to 15 minutes after injection. The test compounds are administered orally as a 0.5% suspension in Tween 80, 60 minutes or 120 minutes before the administration of PBQ. Under these conditions, the most powerful compounds of the invention reduce the number of stretches induced by PBQ by 35 to 70%, in a dosage range of between 1 and 30 mg/kg.

SMILES | melting point [°C] | IC50 [1] [nM] | Reduction of the number of stretches (%) (male OF1 mice)
Cc1cc(F)cc2c1OCCC2 [Compound 15] | 189 to 190 | – | –
CNC(=O)COC(=O)N1CCN(c2ccc(-c3ccc(Cl)cc3)cc2)CC1 [Compound 34] | – | 20 | –
Cc1ccc(-c2ccc([N+](=O)[O-])cc2)cc1 [Compound 36] | 197 to 198 | – | –
CNC(=O)COC(=O)N1CCN(c2ccc(-c3cccc(C(F)(F)F)c3)cc2)CC1 [Compound 37, 2-(methylamino)-2-oxoethyl 4-[3′-(trifluoromethyl)-4-biphenylyl]-1-piperazinecarboxylate] | 129 to 130 | 190 | −57 (a) %
CCOc1ccc(-c2ccc(N3CCN(C(=O)OCC(=O)NC)CC3)cc2)cc1 [Compound 43] | – | 44 | –
CNC(=O)COC(=O)N1CCN(c2ccc(-c3ccc(OC(F)(F)F)cc3)cc2)CC1 [Compound 44, 2-(methylamino)-2-oxoethyl 4-{4′-[(trifluoromethyl)oxy]-4-biphenyl}-1-piperazinecarboxylate] | 187 to 189 | 7 | −53 (a) %
CNC(=O)COC(=O)N1CCN(c2ccc(CC(C)C)cn2)CC1 [Compound 63, 2-(methylamino)-2-oxoethyl 4-[5-(2-methylpropyl)-2-pyridyl]-1-piperazinecarboxylate] | 127 to 129 | – | –
CNC(=O)COC(=O)N1CCN(c2ccc(CC(C)C)nc2)CC1 [Compound 66, 2-(methylamino)-2-oxoethyl 4-[6-(2-methylpropyl)-3-pyridyl]-1-piperazinecarboxylate] | 87 to 89 | – | –
Cc1ccc(-c2ccc(Cl)cc2)cn1 [Compound 75] | 203 to 206 | – | –
CNC(=O)COC(=O)N1CCN(c2ccc(-c3cccc(C(F)(F)F)c3)cn2)CC1 [Compound 76, 2-(methylamino)-2-oxoethyl 4-{5-[3-(trifluoromethyl)phenyl]-2-pyridyl}-1-piperazinecarboxylate] | 158 to 160 | 290 | −47 (a) %
CNC(=O)COC(=O)N1CCN(c2ccc(-c3ccc(C(F)(F)F)cc3)cn2)CC1 [Compound 79, 2-(methylamino)-2-oxoethyl 4-{5-[4-(trifluoromethyl)phenyl]-2-pyridyl}-1-piperazinecarboxylate] | 206 to 209 | – | –
CNC(=O)COC(=O)N1CCN(c2ccc(-c3ccc(OC(F)(F)F)cc3)cn2)CC1 [Compound 83, 2-(methylamino)-2-oxoethyl 4-(5-{4-[(trifluoromethyl)oxy]phenyl}-2-pyridyl)-1-piperazinecarboxylate] | 188 to 190 | 12 | –
CNC(=O)COC(=O)N1CCN(c2ccc(-c3cccc(C(F)(F)F)c3)nc2)CC1 [Compound 85, 2-(methylamino)-2-oxoethyl 4-{6-[3-(trifluoromethyl)phenyl]-3-pyridyl}-1-piperazinecarboxylate] | 146 to 150 | – | –
NC(=O)COC(=O)N1CCN(c2ccc(-c3cccc(C(F)(F)F)c3)nc2)CC1 [Compound 86, 2-amino-2-oxoethyl 4-{6-[3-(trifluoromethyl)phenyl]-3-pyridyl}-1-piperazinecarboxylate] | 155 to 157 | – | –
CNC(=O)COC(=O)N1CCN(c2ccc(-c3cccc(C(F)(F)F)c3)nn2)CC1 [Compound 87, 2-(methylamino)-2-oxoethyl 4-{6-[3-(trifluoromethyl)phenyl]-3-pyridazinyl}-1-piperazinecarboxylate] | 151 to 153 | – | –
Cc1ccc(-c2ccc(Cl)cc2)cn1 [Compound 98] | 204 to 206 | – | –
CNC(=O)COC(=O)N1CCCN(c2ccc(-c3ccc(OC(F)(F)F)cc3)cn2)CC1 [Compound 103, 2-(methylamino)-2-oxoethyl 4-(5-{4-[(trifluoromethyl)oxy]phenyl}-2-pyridyl)-1,4-diazepane-1-carboxylate] | 191 to 193 | – | –
